Assay results taken from paper PMC12152883, “Bile acids inhibit equilibrative adenosine transport to alter adenosine receptor signaling in cholestasis” (The Journal of Biological Chemistry, 2025).
Where “and” joins values, the source holds several entries; their conditions need not be identical. Identical values can stand only once.

How the values were obtained:
CNT2 = target: T1, CNT2 (Homo sapiens, UniProt O43868); test: Radiolabeled BA transport in CNT2 mRNA-injected Xenopus oocytes; assay type: cell-based; settings: 3H-labelled BA, Na+-containing buffer, pH 7.4
T1 construct: expressed in transfected cells; host or cells: Xenopus laevis oocytes injected with in vitro-transcribed capped mRNA
T1 sequence (O43868 1-658): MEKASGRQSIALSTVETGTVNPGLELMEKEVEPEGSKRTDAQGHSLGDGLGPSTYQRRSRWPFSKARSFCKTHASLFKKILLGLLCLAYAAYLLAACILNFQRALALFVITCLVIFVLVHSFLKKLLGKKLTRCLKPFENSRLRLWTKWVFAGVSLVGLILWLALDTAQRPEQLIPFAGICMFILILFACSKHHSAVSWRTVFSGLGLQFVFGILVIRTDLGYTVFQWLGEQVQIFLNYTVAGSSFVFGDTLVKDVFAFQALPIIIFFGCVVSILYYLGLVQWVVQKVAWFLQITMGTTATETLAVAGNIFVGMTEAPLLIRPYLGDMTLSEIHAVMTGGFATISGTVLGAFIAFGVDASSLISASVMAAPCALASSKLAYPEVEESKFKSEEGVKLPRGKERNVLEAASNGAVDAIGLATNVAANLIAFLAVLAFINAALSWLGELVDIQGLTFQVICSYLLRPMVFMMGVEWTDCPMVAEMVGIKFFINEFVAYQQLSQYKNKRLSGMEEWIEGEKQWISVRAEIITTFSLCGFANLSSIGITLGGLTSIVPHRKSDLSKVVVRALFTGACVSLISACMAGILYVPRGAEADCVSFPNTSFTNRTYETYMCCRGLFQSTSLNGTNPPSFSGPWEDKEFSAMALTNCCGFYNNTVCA
Procedure: We used a Xenopus oocyte-based transport assay that was previously used to examine BA transport by plasma membrane–directed ENT3 with a truncated N-terminus (that harbors lysosomal targeting motif) to experimentally verify whether ENT2 is capable of translocating BAs across the cell membrane ([24]). We tested both ENT1 and ENT2 along with CNT2, a purine nucleoside-specific concentrative transporter, to investigate their capacities to transport radiolabeled BAs. […] Transport was measured at pH 7.4, which is the closest pH to the pH of the extracellular fluid in which cells are exposed to solutes such as BAs to conduct plasma membrane transport ([29]).
The generated pOX expression constructs were linearized with either the Not1 or Sac1 restriction enzymes. The digested products were purified via phenol‒chloroform extraction. The mRNAs were synthesized using mMESSAGE mMACHINE (Ambion) transcription kits according to the manufacturer’s instructions. The mRNAs were purified via lithium precipitation. Oocytes were procured from Ecocyte. Prior to experiments, procured oocytes were defolliculated by treating with collagenase A-OR II solution followed by washing with Barth’s solution. Following microscopic verification, selected oocytes were incubated to recover overnight at 25 °C in a shaker incubator. Fifty nanoliters (400–800 ng/μl) of equal amounts of mRNAs were injected into defolliculated oocytes the next day. Expression of plasmids was analyzed after RNA isolation from oocyte extracts and conducting qPCR analysis with gene-specific primers as described earlier ([30]). The injected oocytes were incubated at 15 °C for 24 h before transport assays were performed. The uptake of radiolabeled substrates was measured after a 30 min incubation in transport buffer (100 mM NaCl, 2 mM KCl, 1 mM CaCl2, 1 mM MgCl2, and 10 mM Hepes, pH 7.4) at room temperature. […] Individual oocytes were shaken overnight in 10% SDS for complete dissolution, and then the radioactivity was quantified with a Beckman liquid scintillation counter. […]

HeLa cell line = test: 3H-nucleoside uptake inhibition by BAs in HeLa cell line; assay type: cell-based; settings: BA 100 μM; for % Inhibition of Ado uptake, HeLa cell line, Sodium buffer / % Inhibition of Ado uptake, HeLa cell line, Sodium-free buffer: 3H-Ado 0.02 μM; for extent of inhibition of guanosine transport, HeLa cells: 3H-guanosine 0.02 μM, Na+-free
Procedure: The bars represent the mean ± SD (n = 3). A representative experiment from 3 to 5 independent experiments is presented. Statistical analysis was performed using one-way ANOVA with Dunnett’s multiple comparisons test; ∗p < 0.032, ∗∗p < 0.0021, ∗∗∗p < 0.0002.
HeLa (CCL-2) and HepG2 (HB_8065) were procured from ATCC. Both cell lines were cultured in Eagle's minimum essential medium and Dulbecco's modified Eagle's medium, respectively, supplemented with 10% fetal bovine serum and penicillin-streptomycin (1X). After cells were tested free for mycoplasma contamination, they were plated in 24-well plates, and transport assays were conducted when the cells were 80% confluent. The cells were briefly rinsed with PBS, and then the uptake of radiolabeled substrates was measured after a 5 min incubation in sodium containing (130 mM NaCl, 20 mM Tris–HCl, 3 mM K2HPO4, 1 mM MgCl2.6H2O, 2 mM CaCl2, 5 mM glucose, pH 7.4) or sodium-free (130 mM N-methyl-D-glucamin, 20 mM Tris–HCl, 3 mM K2HPO4, 1 mM MgCl2.6H2O, 2 mM CaCl2, 5 mM glucose, pH 7.4) transport buffers at 37 °C. Uptake was terminated by washing the cells three times with ice-cold arrest buffer containing 20 mM uridine. The cells were shaken for 30 min in 10% SDS for complete dissolution, after which the radioactivity was quantified with a Beckman liquid scintillation counter. The data are presented as the mean ± SD (n = 3).

| SMILES | transport of BA by CNT2 (CNT2) | % Inhibition of Ado uptake, HeLa cell line, Sodium buffer (HeLa cell line) | % Inhibition of Ado uptake, HeLa cell line, Sodium-free buffer (HeLa cell line) | extent of inhibition of guanosine transport, HeLa cells (HeLa cell line) |
| --- | --- | --- | --- | --- |
| C[C@H](CCC(=O)O)[C@H]1CC[C@H]2[C@@H]3[C@H](O)C[C@@H]4C[C@H](O)CC[C@]4(C)[C@H]3C[C@H](O)[C@]12C [CA, cholic acid] | incapable of transporting | 52.17 ± 0.51% | 48.8% and 48.78 ± 0.52% | 16.1% |
| C[C@H](CCC(=O)NCCS(=O)(=O)O)[C@H]1CC[C@H]2[C@@H]3[C@H](O)C[C@@H]4C[C@H](O)CC[C@]4(C)[C@H]3C[C@H](O)[C@]12C [TCA, taurocholic acid] | incapable of transporting | 59.20 ± 0.31% | 67.21 ± 0.08% | 0% |
| C[C@H](CCC(=O)O)[C@H]1CC[C@H]2[C@@H]3CC[C@@H]4C[C@H](O)CC[C@]4(C)[C@H]3C[C@H](O)[C@]12C [DCA, deoxycholic acid] | incapable of transporting | 41.33 ± 0.10% | 67.86 ± 1.67% | 0% |
